Results on eight molecules are retold here after paper PMC10965847, “Expanding a peptide-covalent probe hybrid for PET imaging of S. aureus driven focal infections” (EJNMMI Radiopharmacy and Chemistry, 2024).

“Also recorded” adds a separate entry of the source.

Data set [1] deals with S. aureus, ATCC 25,923. Kind of data set: MIC by resazurin (alamar blue) reduction, broth dilution. It is filed as cell-based. Particulars: for growth inhibitory (bacteriostatic) / bactericidal effect on S. aureus: MIC and MBC assays, result in words. The method, then:
(§1) The MICs were determined as the lowest concentration at which the conversion of the resazurin dye from blue to pink was absent. Conversely, the minimum bactericidal concentrations (MBC) were determined using the spot assay shown in Fig. 3a, where the absence of a bacterial lawn indicated the minimum required concentration for bacterial killing. […] Although UBI has been previously reported as bactericidal against S. aureus, the experimental conditions and strain utilized were different (Brouwer et al. [2006]).
A single colony of S. aureus, ATCC 25,923 (Microbiologics) was inoculated in Mueller Hinton broth (MHB) and incubated overnight at 120 rpm (revolutions per minute) and 37 °C. The experiment was carried out in a 96-microtiter plate using a broth dilution assay wherein all the peptides (ABI scientific) were diluted two-fold in each step-in media (M9 supplemented with 0.01% Tryptone). Cells were washed twice with media and diluted to a final concentration of 10^5 colony forming units (CFU) at each well. The final volume in each well was 200 µL. […] After 24 h, 30 µL of 0.75 mg/mL of resazurin dye (HiMedia Labs) was added in each of the wells and kept for incubation overnight at 37 °C with mild shaking. The next day, the 96 well plates as well as MHB-agar plates, were observed, and results were recorded. The experiment was carried out in triplicates. As mentioned earlier, S. aureus was cultured and washed with media to carry out a time-kill assay. Experiments were performed in microfuge tubes. ~10^6 cells were incubated with minimum inhibitory concentration (MIC) of UBI-APBA (2 µM) at a final volume of 500 µL adjusted with M9 media. Cells and UBI were incubated in media at 37 °C at 120 rpm. 50 µL aliquots from each reaction mixture were removed at required time intervals. These aliquots were plated on the MHB agar plates and incubated at 37 °C. The following day, colonies were counted to get CFU. Surviving fractions were plotted against time. Origin graphing and analysis 6.0 Pro software was used for plotting and analysis of data.
Background: The colour change of resazurin is a common sign of viable cells or microbes.

For data set [2], the system named is S. aureus, ATCC 25,923. Kind of data set: MBC by spot assay on MHB-agar. It is filed as cell-based. Particulars: 5 µL aliquots from MIC wells spotted on MHB-agar, overnight 37 °C, absence of bacterial lawn, triplicates. The method, then: as §1
A single colony of S. aureus, ATCC 25,923 (Microbiologics) was inoculated in Mueller Hinton broth (MHB) and incubated overnight at 120 rpm (revolutions per minute) and 37 °C. The experiment was carried out in a 96-microtiter plate using a broth dilution assay wherein all the peptides (ABI scientific) were diluted two-fold in each step-in media (M9 supplemented with 0.01% Tryptone). Cells were washed twice with media and diluted to a final concentration of 10^5 colony forming units (CFU) at each well. The final volume in each well was 200 µL. […] After 24 h, 30 µL of 0.75 mg/mL of resazurin dye (HiMedia Labs) was added in each of the wells and kept for incubation overnight at 37 °C with mild shaking. The next day, the 96 well plates as well as MHB-agar plates, were observed, and results were recorded. […] The following day, colonies were counted to get CFU. […]

Data set [3] has as its system HEK 293 cells. The data set is described as follows: Cell cytotoxicity (MTT) assay. Particulars: HEK 293, MTT, 24 h, result in words. The method, then:
Human embryonic kidney (HEK 293) cells were maintained in DMEM supplemented with 10% FBS and 1% antibiotic-antimycotic solution at 37 °C, 5% CO2 in humidified atmosphere.
Cell cytotoxicity was measured by performing 3-(4,5-dimethylthiazol-2-yl)-2,5-diphenyltetrazolium bromide) (MTT) assay. Briefly, 2000 cells/100 µL were seeded in a 96-well plate and kept overnight in incubator at 37 °C, 5% CO2. […] Melittin (17 µM) was used as a positive control for cytotoxicity assay. Following incubation, 10 µL of MTT was added to each well and after 3 h the supernatant was removed and 100 µL of dimethyl sulfoxide (DMSO) was added. After 1 h incubation, the absorbance was recorded at 570 nm. One-way ANOVA was used to establish the presence of significant groups, and Tukey’s test was subsequently utilized to conduct the comparison of means.

The subject of data set [4] is human erythrocytes. Kind of data set: Haemolysis assay. To be noted: 30 min, 37 °C, result in words; for haemolysis: human erythrocytes 4% (v/v) in PBS, 8, 32 and 128 µM, absorbance 540 nm, duplicates; for haemolysis (positive controls): human erythrocytes 4% (v/v), melittin 17 µM (50 µg/mL), triton X-100 0.1% (v/v). On the procedure:
The haemolysis assay is widely used to assess the therapeutic potential of a given AMP. AMPs that cause ruptured RBCs at their MICs naturally have low therapeutic potential.
Fresh human blood samples were obtained from healthy donors with the approval of the institutional medical ethics committee. Erythrocytes were isolated from heparinized human blood by centrifugation at 2000g for 5 min after washing three times with PBS at 4 °C. After removing the supernatant, the cell pellet was resuspended in 2 mL of PBS, and cells were diluted at 4% (v/v) for the haemolysis experiment. […] Samples were centrifuged at 2000g for 5 min, and the absorbance of supernatants was measured at 540 nm using a polarstar omega plate reader from BMG Labtech. Erythrocytes lysed with 0.1% triton X-100 and 50 µg/mL melittin were used as positive controls. Percentage haemolysis was calculated using the formula: Haemolysis (%) = (ASAMPLE − ANG)/(APC − ANG) × 100[ASAMPLE = Absorbance recorded for samples at 540 nm, ANG = Absorbance recorded for untreated (negative control) erythrocytes at 540 nm, APC = Absorbance recorded for Melittin treated (positive control) erythrocytes at 540 nm]. One-way ANOVA was used to establish the presence of significant groups, and Tukey’s test was subsequently utilized to conduct the comparison of means.

Data set [5] relates to S. aureus membrane. Kind of data set: Membrane depolarization, DiOC2(3), flow cytometry. It is filed as cell-based. Particulars: 5 µM CCCP; DiOC2(3) 30 µM; result in words. The text has this:
AMPs are reported to destroy bacterial cells by permeabilizing the membrane, followed by depolarization (Mitra et al. [2020]; Bhatt Mitra et al. [2020]). To explore if UBI-APBA utilized this strategy to adversely affect the survival of S. aureus, depolarization and permeabilization of S. aureus membrane was studied by flow cytometry. […] Furthermore, we investigated the permeabilization of the S. aureus membrane by assessing propidium iodide uptake (PI).
For the permeabilization study, peptide-treated cells were washed with saline followed by staining with DNA stain, propidium iodide (PI) at a final concentration of 45 µM (30 min at 37 °C and 120 rpm). Isopropanol treated cells were used as positive control. The % permeabilization was calculated after normalizing the values with respect to the untreated (0% permeabilization) and isopropanol treated cells (100% permeabilization).
Positive control for membrane depolarization studies was prepared by incubating bacteria under similar conditions with 5 µM CCCP.
Background: A flow cytometer gives signals particle by particle.

The nature of data set [6]: in vitro. To be noted: human, human serum. The method, then: The hydrophilicity of complexes is a predictor of fast renal clearance, which is desirable for diagnostic radiopharmaceuticals.
To assess the stability of the ^68Ga labeled peptide conjugates in PBS, 50 µL of complexes were added to 450 µL of PBS (1:10 dilution) and incubated at 37 °C for 3 h. Aliquots were taken at the end of incubation and analyzed by HPLC, as described previously. Similarly, to estimate the integrity of the ^68Ga complexes in serum, incubation was done with human serum at 1:10 dilution for 3 h at 37 °C. Samples were precipitated with 2% trichloroacetic acid (TCA), separated by centrifuging at 10,000g for 5 min, and analyzed by HPLC.

The subject of data set [7] is S. aureus. To be noted: different experimental conditions and strain; ref Brouwer et al. [2006]; cited from earlier work. The method, then:
The MICs were determined as the lowest concentration at which the conversion of the resazurin dye from blue to pink was absent. Conversely, the minimum bactericidal concentrations (MBC) were determined using the spot assay shown in Fig. 3a, where the absence of a bacterial lawn indicated the minimum required concent ...

For data set [8] the following is noted: shake-flask octanol/water 1:1 (25 µL sample + 975 µL water + 1 mL octanol), vortexed, 5 min, centrifuged; NaI(Tl) counting; n = 4. The method, then: Partition coefficients for ^68Ga complexes were determined by mixing 25 µL of sample with 975 µL water and 1 mL octanol (octanol: water = 1:1). Thereafter, the mixture was vortexed and incubated for 5 min, followed by centrifugation for 5 min at 3000 rpm for separation of aqueous and organic phase. NaI (Tl) counter was used to measure the activity associated with both the phases and log P value [logarithm of the activity concentration in n-Octanol / activity concentration in the aqueous layer] was calculated.

Data set [9] is described as follows: In vitro stability of ^68Ga complexes in PBS. In kind it is physicochemical. Particulars: 1:10 dilution, 37 °C, 3 h, radio-HPLC.

As a reminder, the MIC is the least concentration at which growth counts as inhibited. By MBC is commonly meant the lowest tested concentration that kills the bacteria rather than only halting them. Higher therefore signals less potent killing. For orientation: fraction remaining means the share of the starting amount still present when the sample was taken.

As for “Acetyl-cysteine-2-acetyl boronic acid [AcCys-2-APBA]”, in [1], the “growth inhibitory (bacteriostatic) / bactericidal effect on S. aureus” value is “no such effect”. In addition, the MIC in data set [1] (S. aureus ATCC 25,923, two-fold broth dilution in M9 + 0.01% Tryptone, 10^5 CFU per well, 200 µL, resazurin added after 24 h, overnight 37 °C, lowest concentration without blue-to-pink conversion, visual, triplicates) is on record as above 32 µM. In data set [2], this molecule yielded an MBC above 32 µM.
As to `CSCC[C@H](NC(=O)[C@H](CCCNC(=N)N)NC(=O)[C@H](CCCNC(=N)N)NC(=O)[C@H](CCCCN)NC(=O)[C@H](C)NC(=O)[C@H](CCCNC(=N)N)NC(=O)CNC(=O)[C@@H](N)[C@@H](C)O)C(=O)N[C@@H](CCC(N)=O)C(=O)N[C@@H](Cc1ccc(O)cc1)C(=O)N[C@@H](CC(N)=O)C(=O)N[C@@H](CCCNC(=N)N)C(=O)N[C@@H](CCCNC(=N)N)C(=O)NCC(=O)N[C@@H](CSCCCNC(=O)COc1ccc(C(C)=O)c(B(O)O)c1)C(N)=O` [UBI-APBA], the cell cytotoxicity result in data set [3] (128 µM (64 × MIC of UBI-APBA), n = 3) is recorded as “minimal cytotoxicity; also recorded: neither hemolytic nor cytotoxic”. For the same molecule, the haemolysis result in data set [4] is listed as “neither hemolytic nor cytotoxic”.
For the molecule `N#CC(C#N)=NNc1cccc(Cl)c1` [CCCP, Carbonyl cyanide m-chlorophenyl hydrazone], the “depolarization of bacterial membrane (positive control)” value in data set [5] is “low red to green fluorescence intensity ratio”.
As to `CSCC[C@H](NC(=O)[C@H](CCCNC(=N)N)NC(=O)[C@H](CCCNC(=N)N)NC(=O)[C@H](CCCCN)NC(=O)[C@H](C)NC(=O)[C@H](CCCNC(=N)N)NC(=O)CNC(=O)[C@@H](NC(=O)CCC(C(=O)O)N1CCN(CC(=O)O)CCN(CC(=O)O)CC1)[C@@H](C)O)C(=O)N[C@@H](CCC(N)=O)C(=O)N[C@@H](Cc1ccc(O)cc1)C(=O)N[C@@H](CC(N)=O)C(=O)N[C@@H](CCCNC(=N)N)C(=O)N[C@@H](CCCNC(=N)N)C(=O)NCC(=O)N[C@@H](CSCCCNC(=O)COc1ccc(C(C)=O)c(B(O)O)c1)C(N)=O` (stereo partly shown) [[^68Ga]Ga-UBI-APBA, metal not drawn], the share remaining at 3 h in data set [6] stood at 91%.
melittin: in data set [3] (melittin 17 µM), the “cell cytotoxicity (positive control)” value was “cytotoxic”. For the same molecule, the “haemolysis (positive controls)” value in data set [4] was “induced haemolysis”.
triton X-100: the “haemolysis (positive controls)” value in [4] was “induced haemolysis”.
For the molecule `CSCC[C@H](NC(=O)[C@H](CCCNC(=N)N)NC(=O)[C@H](CCCNC(=N)N)NC(=O)[C@H](CCCCN)NC(=O)[C@H](C)NC(=O)[C@H](CCCNC(=N)N)NC(=O)CNC(=O)[C@@H](N)[C@@H](C)O)C(=O)N[C@@H](CCC(N)=O)C(=O)N[C@@H](Cc1ccc(O)cc1)C(=O)N[C@@H](CC(N)=O)C(=O)N[C@@H](CCCNC(=N)N)C(=O)N[C@@H](CCCNC(=N)N)C(=O)NCC(=O)N[C@@H](CS)C(N)=O` [UBI], the “activity against S. aureus as previously reported” value in data set [7] is “bactericidal”. The “growth inhibitory (bacteriostatic) / bactericidal effect on S. aureus” value in data set [1] was “no such effect”. In addition, in data set [4], the haemolysis result is “neither hemolytic nor cytotoxic”.
For `CSCC[C@H](NC(=O)[C@H](CCCNC(=N)N)NC(=O)[C@H](CCCNC(=N)N)NC(=O)[C@H](CCCCN)NC(=O)[C@H](C)NC(=O)[C@H](CCCNC(=N)N)NC(=O)CNC(=O)[C@@H](NC(=O)CCC(C(=O)O)N1CCN(CC(=O)O)CCN(CC(=O)O)CC1)[C@@H](C)O)C(=O)N[C@@H](CCC(N)=O)C(=O)N[C@@H](Cc1ccc(O)cc1)C(=O)N[C@@H](CC(N)=O)C(=O)N[C@@H](CCCNC(=N)N)C(=O)N[C@@H](CCCNC(=N)N)C(=O)NCC(=O)N[C@@H](CS)C(N)=O` (stereo partly shown) [[^68Ga]Ga-UBI, metal not drawn], the share remaining at 3 h in [6] was 97%. Further, the “Partition coefficient, Log P” value in data set [8] was -3.8 ± 0.15. The “RCP after incubation in PBS” value in data set [9] was found to be 99%.
